Results reported in PubChem BioAssay (NCI).
Where “and” joins values, the source holds several entries; their conditions need not be identical. Identical values can stand only once.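 The compound was tested at five concentrations on cells cultured in 96-well plates, with a 48-hour exposure period. At the TGI there is no net growth.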

What was measured:
Experiment in all cases: NCI-60 cell line screen, 48 h
[1] = test system: COLO 205 colon
[2] = test system: KM12 colon
[3] = test system: M14 melanoma
[4] = test system: MCF7 breast
[5] = test system: NCI-H226 lung
[6] = test system: UACC-62 melanoma
[7] = test system: NCI-H460 lung
[8] = test system: OVCAR-3 ovarian
[9] = test system: U251 CNS
[10] = test system: SF-539 CNS

| SMILES | TGI [1] [µM] | TGI [2] | TGI [3] | TGI [4] | TGI [5] [µM] | TGI [6] [µM] | TGI [7] [µM] | TGI [8] | TGI [9] | TGI [10] |
| --- | --- | --- | --- | --- | --- | --- | --- | --- | --- | --- |
| CC(=O)Oc1ccc2c3c1[C@@H]1O[C@@H]1c1cccc(c1-3)[C@@H]1O[C@H]21 | 4.36 | 4.47 µM | 3.27 µM | > 100 µM | 84.2 | 3.44 | – | – | – | – |
| COc1ccc(NC(C)=O)cc1N1C(=O)/C(=C\c2cccc(Oc3ccccc3)c2)SC1c1ccccc1 (stereo unspecified) | 39.9 | > 100 µM | > 100 µM | > 100 µM | > 100 | > 100 | > 100 | 71.3 µM | > 100 µM | – |
| Cc1ccc(S(=O)(=O)NC(=O)NCC(=O)O)cc1 | > 100 | > 100 µM | > 100 µM | > 100 µM | – | > 100 | > 100 | – | > 100 µM | > 100 µM |
| C[Si](C)(C)C#CCOC=C1CC1 | > 100 | > 100 µM | > 100 µM | > 100 µM | > 100 | > 100 | > 100 | – | > 100 µM | > 100 µM |
| CSc1nc(Cl)c2c(n1)Sc1nc3ccccc3n1N=C2 | 57.5 | > 100 µM | 46.3 µM | – | > 100 | 84.3 | > 100 | 75.8 µM | > 100 µM | – |
| Cc1ccc2c(c1)C/C(=C\c1ccccc1C(=O)O)C2=O | > 100 | > 100 µM | – | > 100 µM | > 100 | > 100 | > 100 | > 100 µM | > 100 µM | > 100 µM |
| NCCSc1nc(N)c2ncn(C3OC(CO)C(O)C3O)c2n1 (stereo unspecified) | > 100 | > 100 µM | > 100 µM | – | > 100 | > 100 | > 100 | > 100 µM | > 100 µM | > 100 µM |
| OCC(O)C(O)C(C=NNc1ncnc2ccc(Br)cc12)=NNc1ncnc2ccc(Br)cc12 (stereo unspecified) | > 100 | 69 µM and > 100 µM | 4.91 µM and 17.4 µM | 35 µM and > 100 µM | – | – | – | 28.2 µM and > 100 µM | 67.3 µM and > 100 µM | 33.7 µM and > 100 µM |
| C#CC1(O)CC(c2ccccc2)N(C)C(c2ccccc2)C1 (stereo unspecified) | > 100 | > 100 µM | > 100 µM | – | > 100 | > 100 | > 100 | > 100 µM | > 100 µM | > 100 µM |
| Cc1cn(C2CC(O)C(Cn3nncc3Cn3ccc(=O)[nH]c3=O)O2)c(=O)[nH]c1=O (stereo unspecified) | > 100 | > 100 µM | > 100 µM | > 100 µM | > 100 | > 100 | – | > 100 µM | > 100 µM | > 100 µM |
| COc1cc(C2S/C(=C/c3ccccc3)C(=O)N2c2ccccn2)cc(OC)c1OC (stereo unspecified) | > 78.8 | 29.4 µM | 31.8 µM | > 57.9 µM | > 96.4 | 29.8 | – | 44.4 µM | 28.1 µM | – |
| NNC(=O)CSc1nnc(CCCCCCCCc2nnc(SCC(=O)NN)o2)o1 | > 100 | > 100 µM | > 100 µM | > 100 µM | > 100 | > 100 | > 100 | – | > 100 µM | – |
| COC(=O)C(=O)C(C(=O)C(=O)Nc1nc(=S)[nH][nH]1)c1nc2ccc([N+](=O)[O-])cc2[nH]c1=O (stereo unspecified) | – | > 100 µM | > 100 µM | > 100 µM | > 100 | > 100 | > 100 | > 100 µM | > 100 µM | > 100 µM |
| C=[N+](CNC(=O)CNC(=O)C(Cc1ccccc1)NC(=O)OC(C)(C)C)C(=O)CNC(=O)C(Cc1ccccc1)NC(=O)OC(C)(C)C (stereo unspecified) | > 100 | > 100 µM | > 100 µM | > 100 µM | > 100 | > 100 | > 100 | > 100 µM | – | > 100 µM |
| CCCC(=O)OC1=C(c2ccccc2)Sc2ccccc2-n2cccc21 | > 10 | > 10 µM | > 10 µM | > 10 µM | – | > 10 | – | – | – | – |
| O=C1NC(=O)C2(CCc3ccc(N(CCCl)CCCl)cc32)N1 (stereo unspecified) | 17.5 | > 84.1 µM | – | 61.4 µM | 21.7 | 15.8 | 23.8 | 41.4 µM | 33 µM | 22.2 µM |
| CN1C(=O)C(O)C[C@@H]1c1ccc(F)cc1 (stereo partly specified) | > 100 | – | > 100 µM | > 100 µM | > 100 | > 100 | – | > 100 µM | > 100 µM | > 100 µM |
| O=c1[nH]c(Br)nc2c(N3CCCCC3)c[nH]c12 | > 100 | > 100 µM | > 100 µM | – | > 100 | > 100 | > 100 | > 100 µM | > 100 µM | > 100 µM |
| Cc1ccc(C(=O)C(C)N)cc1C (stereo unspecified) | > 100 | > 100 µM | > 100 µM | – | > 100 | > 100 | > 100 | > 100 µM | > 100 µM | > 100 µM |
| O=C(O)CCCN=C(C(=NCCCC(=O)O)c1ccccc1)c1ccccc1 | > 100 | > 100 µM | > 100 µM | > 100 µM | > 100 | > 100 | > 100 | > 100 µM | > 100 µM | – |
| CC(C)(C)c1cc2c(O)c(c1)COCc1cc(C(C)(C)C)cc(c1O)COCc1cc(C(C)(C)C)cc(c1O)COC2 | > 100 | > 100 µM | > 100 µM | > 100 µM | > 100 | > 100 | > 100 | > 100 µM | > 100 µM | – |
| CC1OC(n2cnc3c(N)nc(Cl)nc32)C(C)(O)C1O (stereo unspecified) | > 25 | > 25 µM | > 25 µM | > 25 µM | > 25 | > 25 | – | > 25 µM | – | > 25 µM |
| CCCNC(=O)c1cc(NC(=O)c2cc(NC(=O)CCS(=O)(=O)OC)cn2C)cn1C | 22.7 | > 61.5 µM | > 76.7 µM | > 100 µM | – | 48.7 | > 100 | 27.4 µM | > 100 µM | – |
